Reference: the Kinase Knowledgebase extract (Sharma et al. 2016)

target: CDK2 (UniProt P24941); assay: Enzyme Assay

IC50 [µM]	Compound
0.119	O=c1ccc2cnc(Nc3ccc(N4CCNCC4)cc3)nc2n1C1CCCCC1
0.179	CCc1cc2cnc(Nc3ccc(N4CCC(O)CC4)cc3)nc2n(C2CCCC2)c1=O
0.139	O=c1c(F)cc2cnc(Nc3ccc(N4CCNCC4)cc3)nc2n1C1CCCC1
0.095	Nc1cc2cnc(Nc3ccc(N4CCNCC4)cc3)nc2n(C2CCCC2)c1=O
> 5	CCOCCOc1cc2cnc(Nc3ccc(N4CCNCC4)cc3)nc2n(C2CCCC2)c1=O
0.233	CC(=O)c1c(C)c2cnc(Nc3ccc(N4CCNCC4)cc3)nc2n(C2CCCC2)c1=O
> 5	O=c1c(Cc2ccccc2)cc2cnc(Nc3ccc(N4CCNCC4)cc3)nc2n1C1CCCC1
0.059	Cc1cc2cnc(Nc3ccc(N4CCNCC4)cc3)nc2n(C2CCCC2)c1=O
0.556	CC(=O)c1cc2cnc(Nc3ccc(N4CCNCC4)cc3)nc2n(C2CCCC2)c1=O
0.084	CC(C)n1c(=O)ccc2cnc(Nc3ccc(N4CCNCC4)cc3)nc21
0.205	CCOCCc1cc2cnc(Nc3ccc(N4CCNCC4)cc3)nc2n(C2CCCC2)c1=O
1.86	Cc1c(Br)c(=O)n(C2CCCC2)c2nc(Nc3ccc(N4CC(C)NC(C)C4)cc3)ncc12 (stereo not drawn)
5.95	CCOC(=O)c1cc2cnc(Nc3ccc(N4CCNCC4)cc3)nc2n(C2CCCC2)c1=O
0.024	O=c1ccc2cnc(Nc3ccc(N4CCNCC4)cc3)nc2n1C1CCCC1
1.33	Cc1c(Br)c(=O)n(C2CCCC2)c2nc(Nc3ccc(N4CCNC(C)(C)C4)cc3)ncc12
0.08	O=c1c(Br)cc2cnc(Nc3ccccc3)nc2n1C1CCCC1
3.15	CC(C)COc1cc2cnc(Nc3ccc(N4CCNCC4)cc3)nc2n(C2CCCC2)c1=O
0.142	CCc1cc2cnc(Nc3ccc(N4CCNCC4)cc3)nc2n(C2CCCC2)c1=O
